Experimental data reported in US12594354B2, “Compositions for visualization of cleaning efficacy and product coverage” (priority 2011, dated 2026).
Structures can show the parent of a compound that is named as a salt.

Legend:
Assay type in all cases: physicochemical
[1] = Visible fluorescence under short (254 nm) and long (360 nm) ultraviolet light; conditions: in distilled water; visually in dark, 9 watt UV lamp at 6 inches
Description: All three tracer substances Riboflavin, Folic Acid and Quinine have unique molecular structures that enable them to mix into base solutions with varying polar and non polar charges. Studies by the authors of the current embodiment have also shown that the substances show an affinity for organic matter residue (e.g. proteins, fats, oils, soil, mineral deposits, etc.). Riboflavin (B2),Folic Acid (B9) and Quinine are approved food additives (Codex General Standard for Food Additives, Codex STAN 192; Code of Federal Regulations Title 21 Sec. 184.1695; Sec. 73.450; Sec. 104.20, Sec. 101.9 and Sec. 172.575). […] Experiments by the inventors have shown that when Riboflavin and Quinine are combined in solution the two GRAS or food additive fluorophores fluoresce synergistically under long and short wave ultraviolet light. [table]

[2] = Detection sensitivity of tracers by UV fluorescence and spectrophotometer; conditions: for sensitivity of spectrophotometer absorption and transmission detection: tracers vs control samples
Description: One method of detecting the presence of the food grade vitamin tracer(s) is by exciting the mixture, treated area or sample swab with ultraviolet light so that the vitamins fluoresce. Riboflavin fluorescence is the identifier for visual observations. Folic Acid fluoresces, but not in the visible spectrum. The color of light is related to the wavelength or frequency of the light. Visible light—to which our eyes are most sensitive—falls in the wavelength range of about 400 to 750 nm. In the absence of visible light and when Riboflavin is excited by long-wave ultraviolet light (maximum lambda=˜365 nm-below the visible spectrum) Riboflavin emits/fluoresces light waves in the visible spectrum (˜450 to 650) which are very distinguishable in the dark when the only other light source is from long (˜365 nm) and midrange (˜312 nm) ultraviolet light. This phenomenon enables visible detection of Riboflavin at levels as low as 1 ppm. It is well know that different compounds have unique absorption and transmission spectra. Another method of quantifying the presence of the food grade vitamin tracers Riboflavin and Folic Acid is by use of a spectrophotometer whereby wavelength absorption and transmission results of known tracers Vs control samples provide characteristic spectra analysis that can be used to determine the absence or presence with sensitivity down to 1 ppm.

[3] = Riboflavin fluorescence persistence in sanitizer and bleach base materials
Description: FIG. 3 is a flow chart showing how the GRAS or food additive composition is mixed with sanitizer(s) or cleaning chemical(s) for visualization of cleaning efficacy so those trained in the art can validate or verify the hygienic condition of equipment or environments after cleaning. The steps involved with making the combined fluorescent additive and base material invention solution include; (1) select the base material and the specific volume that will be used for the application. It is important to know the composition of the base material, its physical properties and establish a set volume. For purposes of this embodiment, base material can be potable water or any of the various sanitation chemicals that has been approved for use in the food, beverage, pharmaceutical, feed industry by appropriate regulatory authorities. The base material will be approximately 95% of the total end product. Potable tap water is an excellent base material for combining with the embodiment composition to produce a solution that can be applied to equipment at any stage of the cleaning process prior final rinse. Quat sanitizers, liquid soaps and detergents have also been shown by the authors to be excellent base materials. Riboflavin mixed easily into solution when 1,000 ppm was added to KayQuat II (>1,000 ppm quaternary ammonia). Fluorescence was intense from day one through day 270 and has not diminished at the time of this publication. Similar tests were performed on Ajax Liquid Soap with Bleach Alternative with similar results.
It should be noted that bench top studies with concentrate hypochlorite solutions have been shown by the authors to rapidly quench Riboflavin fluorescence. […] Highly alkaline ammonia base material produced similar results. The authors were concerned that chlorinated alkaline detergents and/or foaming cleaners would quench the fluorescence of the embodiment composition so tests were performed to determine the effect.

[4] = 2,500 ppm added to a 30% solution of chlorine bleach

| Compound | Visual Fluorescence Long Wave (360 nm) [1] | Visual Fluorescence Short Wave (254 nm) [1] | sensitivity of spectrophotometer absorption and transmission detection [2] | Fluorescence from day one through day 270 ([3]; 1,000 ppm added to KayQuat II (>1,000 ppm quaternary ammonia)) | fluorescence after 8 hours [3, 4] | fluorescence observed for up to 4 hours [3, 4] | visible detection level ([2]; excited by long (~365 nm) and midrange (~312 nm) UV in the dark) |
| --- | --- | --- | --- | --- | --- | --- | --- |
| Cc1cc2nc3c(=O)[nH]c(=O)nc-3n(C[C@H](O)[C@H](O)[C@H](O)CO)c2cc1C [50 ppm Riboflavin USP in distilled water, Riboflavin] | Moderate | Very Slight | – | – | – | – | – |
| Nc1nc2ncc(CNc3ccc(C(=O)N[C@@H](CCC(=O)O)C(=O)O)cc3)nc2c(=O)[nH]1 [Folic Acid] | – | – | 1 ppm | – | – | – | – |
| C=C[C@H]1C[N@@]2CC[C@H]1C[C@H]2[C@H](O)c1ccnc2ccc(OC)cc12 [Quinine Sulfate, Dihydrate] | Moderate | Slight | – | – | – | – | – |
| Cc1cc2nc3c(=O)[nH]c(=O)nc-3n(C[C@H](O)[C@H](O)[C@H](O)CO)c2cc1C [Riboflavin] | – | – | 1 ppm | intense | diminished completely | Slight | 1 ppm |
